From patent publication US11590116B2 (THERAVANCE BIOPHARMA R&D IP, LLC, priority 2019, dated 2023) come the findings set out here.

Molecules are shown by their SMILES.

In assay [1] the target is T1, recombinant human ALK5 (TGF-βR1) protein (Homo sapiens, UniProt P36897).
T1 construct: purchased Life Technologies PR9075A
T1 sequence (P36897 34-503): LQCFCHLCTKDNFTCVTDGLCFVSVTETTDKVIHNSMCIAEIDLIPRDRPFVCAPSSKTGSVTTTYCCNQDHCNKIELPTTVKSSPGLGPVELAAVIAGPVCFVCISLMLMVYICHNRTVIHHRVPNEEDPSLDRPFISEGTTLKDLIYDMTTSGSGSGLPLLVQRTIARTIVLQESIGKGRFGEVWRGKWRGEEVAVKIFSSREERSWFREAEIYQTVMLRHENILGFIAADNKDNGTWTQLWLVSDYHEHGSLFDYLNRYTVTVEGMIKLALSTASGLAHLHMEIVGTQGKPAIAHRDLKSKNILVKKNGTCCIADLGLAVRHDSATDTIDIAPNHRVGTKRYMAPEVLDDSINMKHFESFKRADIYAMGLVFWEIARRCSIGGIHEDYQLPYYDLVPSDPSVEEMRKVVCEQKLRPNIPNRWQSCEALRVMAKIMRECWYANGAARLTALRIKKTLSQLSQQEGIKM
The assay can be described thus: Biochemical ALK5 (TGF-βR1) assay to measure pKi (LANCE Ultra ULight kinase assay). The note with it: apparent pKi from pIC50 by Cheng-Prusoff, read-out: ALK5 pKi (converted). Summed up: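 Compounds (10 μM to 25 pM) preincubated 60 minutes at room temperature with enzyme, then reaction run 60 minutes at 37° C with ATP added as 125 μM (5× final). Stopped with EDTA plus Eu-anti-phospho-Topoisomerase 2-alpha (Thr1342) antibody, TR-FRET read at 665 nm; pIC50 converted to pKi via Cheng-Prusoff.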
Background: In TR-FRET formats the signal depends on donor and acceptor labels being close together.

Assay [2] concerns TGF-β-stimulated SMAD3 phosphorylation in BEAS-2B cells. Briefly: Cellular ALK5 potency assay, inhibition of TGF-β stimulated pSMAD3 formation in BEAS-2B cells. It is filed as cell-based. The settings on record: Homo sapiens; inhibition of TGF-β stimulated pSMAD3 formation, BEAS-2B cells; read-out: BEAS2B pIC50 (converted). Summed up: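 AlphaLISA pSMAD3 read-out, beads incubated overnight. Human BEAS-2B cells: 1 h compound preincubation (37 °C, 5% CO2), then 30 min TGF-β at 10 ng/mL final, immediate lysis. Values are pIC50 relative to stimulated, compound-free baseline.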

As to `Cc1cccc(-c2[nH]cnc2-c2ccc3ncc(-c4csc(C(=O)OC[C@@H]5CCC[C@@H](N)C5)c4)cc3c2)n1` (racemic) [Compound 1215, [rac-(1R,3R)-3-aminocyclohexyl]methyl 4-[6-[5-(6-methyl-2-pyridyl)-1H-imidazol-4-yl]-3-quinolyl]thiophene-2-carboxylate], the Ki in assay [1] is less than 0.0316 nM. Besides, the IC50 in assay [2] was 25.1 to 158 nM.

Take `Cc1cccc(-c2nc3ccccn3c2-c2ccc3ncc(N4CCC(N5CCN(C)CC5)CC4)cc3c2)n1` [Compound 95, 3-[4-(4-methylpiperazin-1-yl)-1-piperidyl]-6-[2-(6-methyl-2-pyridyl)imidazo[1,2-a]pyridin-3-yl]quinoline]: in assay [1], the Ki was 0.0398 to 0.316 nM. Further, the IC50 in assay [2] is 25.1 to 158 nM.

For `Cc1cccc(-c2n[nH]cc2-c2ccc3ncc(N4CC(C)(N(C)C)C4)cc3n2)n1` [Compound 586, N,N,3-trimethyl-1-[6-[3-(6-methyl-2-pyridyl)-1H-pyrazol-4-yl]-1,5-naphthyridin-3-yl]azetidin-3-amine], the Ki in assay [1] was less than 0.0316 nM. In addition, the IC50 in assay [2] was 25.1 to 158 nM.

Consider `Cc1cccc(-c2[nH]nnc2-c2ccc3ncc(N4CCCNCC4)cc3c2)n1` [Compound 339, 3-(1,4-diazepan-1-yl)-6-[5-(6-methyl-2-pyridyl)-1H-triazol-4-yl]quinoline], for which the Ki in assay [1] was 0.398 to 3.16 nM. Besides, the IC50 in assay [2] was 200 to 1260 nM.

For `Cc1cccc(-c2[nH]cnc2-c2ccc3ncc(-c4ncc(C(=O)O[C@H]5CCNC5)s4)cc3c2)n1` [Compound 1160, [(3S)-pyrrolidin-3-yl] 2-[6-[5-(6-methyl-2-pyridyl)-1H-imidazol-4-yl]-3-quinolyl]thiazole-5-carboxylate], the Ki in assay [1] was less than 0.0316 nM. Moreover, the IC50 in assay [2] was less than 20 nM.

As to `Cc1cccc(-c2[nH]cnc2-c2ccc3ncc(-c4csc(C(=O)OCCC5CNC5)c4)cc3c2)n1` [Compound 1169, 2-(azetidin-3-yl)ethyl 4-[6-[5-(6-methyl-2-pyridyl)-1H-imidazol-4-yl]-3-quinolyl]thiophene-2-carboxylate], the Ki in assay [1] was less than 0.0316 nM. Further, the IC50 in assay [2] was 25.1 to 158 nM.

For the compound `CCc1cccc(-c2n[nH]cc2-c2ccc3ncc(N4CCC(N5CCCC5)CC4)cc3n2)n1` [Compound 532, 2-(3-(6-ethylpyridin-2-yl)-1H-pyrazol-4-yl)-7-(4-(pyrrolidin-1-yl)piperidin-1-yl)-1,5-naphthyridine], the Ki in assay [1] is less than 0.0316 nM. In addition, the IC50 in assay [2] was 25.1 to 158 nM.

Take `Cc1cccc(-c2n[nH]cc2-c2ccc3ncc(-c4cn(Cc5c[nH]cn5)nn4)cc3n2)n1` [Compound 101, 7-[1-(1H-imidazol-4-ylmethyl)triazol-4-yl]-2-[3-(6-methyl-2-pyridyl)-1H-pyrazol-4-yl]-1,5-naphthyridine]: the Ki in assay [1] was less than 0.0316 nM. Besides, the IC50 in assay [2] is 200 to 1260 nM.

In the case of `Cc1cccc(-c2n[nH]cc2-c2ccc3ncc(CNCCCN4CCN(C(C)C)CC4)cc3n2)n1` [Compound 218, 3-(4-isopropylpiperazin-1-yl)-N-[[6-[3-(6-methyl-2-pyridyl)-1H-pyrazol-4-yl]-1,5-naphthyridin-3-yl]methyl]propan-1-amine], the Ki in assay [1] is 0.398 to 3.16 nM. The IC50 in assay [2] is 200 to 1260 nM.

With `Cc1cccc(-c2[nH]cnc2-c2ccc3ncc(C(=O)OCC4CC5(CNC5)C4)cc3c2)n1` [Compound 1116, 2-azaspiro[3.3]heptan-6-ylmethyl 6-[5-(6-methyl-2-pyridyl)-1H-imidazol-4-yl]quinoline-3-carboxylate], the Ki in assay [1] was 0.0398 to 0.316 nM. In assay [2], the IC50 was 200 to 1260 nM.

As for `Cc1cccc(-c2n[nH]cc2-c2ccc3nccc(CCCN4CCOCC4)c3n2)n1` [Compound 812, 4-[3-[6-[3-(6-methyl-2-pyridyl)-1H-pyrazol-4-yl]-1,5-naphthyridin-4-yl]propyl]morpholine], in assay [1], the Ki was 0.398 to 3.16 nM. Further, the IC50 in assay [2] was 200 to 1260 nM.

`Cc1cccc(-c2[nH]cnc2-c2ccc3ncc(NCCN4CCNCC4)cc3c2)n1` [Compound 122, 6-[5-(6-methyl-2-pyridyl)-1H-imidazol-4-yl]-N-(2-piperazin-1-ylethyl)quinolin-3-amine]: in assay [1], the Ki was 0.0398 to 0.316 nM. The IC50 in assay [2] was 25.1 to 158 nM.

In the case of `Cc1cccc(-c2[nH]cnc2-c2ccc3ncc(-c4nc5c(s4)CNCC5)cc3c2)n1` [Compound 1068, 2-[6-[5-(6-methyl-2-pyridyl)-1H-imidazol-4-yl]-3-quinolyl]-4,5,6,7-tetrahydrothiazolo[5,4-c]pyridine], the Ki in assay [1] was 0.0398 to 0.316 nM. Moreover, in assay [2], the IC50 is less than 20 nM.

Take `Cc1nc(-c2nc3ccccn3c2-c2ccc3ncc(-c4cn[nH]c4)cc3n2)ccc1F` [Compound 169, 2-[2-(5-fluoro-6-methyl-2-pyridyl)imidazo[1,2-a]pyridin-3-yl]-7-(1H-pyrazol-4-yl)-1,5-naphthyridine]: the Ki in assay [1] is 0.0398 to 0.316 nM. In assay [2], the IC50 is less than 20 nM.

Regarding `Cc1cccc(-c2[nH]cnc2-c2ccc3ncc(Nc4nc(CN5CCNCC5)cs4)cc3c2)n1` [Compound 164, N-[6-[5-(6-methyl-2-pyridyl)-1H-imidazol-4-yl]-3-quinolyl]-4-(piperazin-1-ylmethyl)thiazol-2-amine], in assay [1], the Ki was 0.0398 to 0.316 nM. The IC50 in assay [2] was 200 to 1260 nM.

`Cc1cccc(-c2[nH]cnc2-c2ccc3ncc(-c4csc(C(=O)OCCN5CCC[C@@H](N)C5)c4)cc3c2)n1` [Compound 1178, 2-[(3R)-3-amino-1-piperidyl]ethyl 4-[6-[5-(6-methyl-2-pyridyl)-1H-imidazol-4-yl]-3-quinolyl]thiophene-2-carboxylate]: in assay [1], the Ki was 0.0398 to 0.316 nM. For the same compound, the IC50 in assay [2] is 25.1 to 158 nM.

In the case of `Cc1cccc(-c2n[nH]cc2-c2ccc3ncc(-c4ccnc(C(C)(C)C#N)c4)cc3n2)n1` [Compound 341, 2-methyl-2-[4-[6-[3-(6-methyl-2-pyridyl)-1H-pyrazol-4-yl]-1,5-naphthyridin-3-yl]-2-pyridyl]propanenitrile], in assay [1], the Ki is less than 0.0316 nM. Besides, the IC50 in assay [2] is less than 20 nM.

Consider `Cc1cccc(-c2[nH]cnc2-c2ccc3ncc(N4CCCNCC4)cc3n2)n1` [Compound 307, 7-(1,4-diazepan-1-yl)-2-(5-(6-methylpyridin-2-yl)-1H imidazol-4-yl)-1,5-naphthyridine], for which the Ki in assay [1] was 0.0398 to 0.316 nM. The IC50 in assay [2] is 25.1 to 158 nM.

For `Cc1cccc(-c2nnn(Cc3ccccc3)c2-c2ccc3ncc(-c4c[nH]nc4C(F)(F)F)cc3n2)n1` [Compound 288, 2-[3-benzyl-5-(6-methyl-2-pyridyl)triazol-4-yl]-7-[3-(trifluoromethyl)-1H-pyrazol-4-yl]-1,5-naphthyridine], the Ki in assay [1] is 0.398 to 3.16 nM. Moreover, in assay [2], the IC50 was 25.1 to 158 nM.

In the case of `Cc1cccc(-c2[nH]cnc2-c2ccc3ncc(C4=CC[C@H](NC(=O)[C@H]5CCCN5)CC4)cc3c2)n1` [Compound 776, (2R)-N-[(1R)-4-[6-[5-(6-methyl-2-pyridyl)-1H-imidazol-4-yl]-3-quinolyl]cyclohex-3-en-1-yl]pyrrolidine-2-carboxamide], the Ki in assay [1] was 0.0398 to 0.316 nM. Moreover, the IC50 in assay [2] was 25.1 to 158 nM.

As for `Cc1cccc(-c2[nH]cnc2-c2ccc3ncc(N4CCC(C(=O)OC5CNC5)CC4)cc3c2)n1` [Compound 705, azetidin-3-yl 1-[6-[5-(6-methyl-2-pyridyl)-1H-imidazol-4-yl]-3-quinolyl]piperidine-4-carboxylate], in assay [1], the Ki was 0.0398 to 0.316 nM. In addition, the IC50 in assay [2] is 200 to 1260 nM.
